From patent publication US20100210556A1, “USE OF A PEPTIDE AS A THERAPEUTIC AGENT” (priority 2007, published 2010)
Where no end group is shown, it is not given here. [ ]: non-standard residue; d: D form. βAla = NCCC(=O)O

How the values were obtained:
HIV-1IIIB = type: cell-based; conditions: CEM-SS T-cells, peptides 10 micrograms per ml, 6 days post-infection, MTS
[1] = tested on: hepatitis B virus (HBV) ayw strain; test: HBV assay in HepG2-2.2.15 cells, secreted HBV DNA by TaqMan PCR; type: cell-based; conditions: 10 micrograms per ml, six days, HBV DNA in supernatant
HCMV strain AD169 = test: HCMV plaque formation assay in MRC-5 cells; conditions: HCMV AD169, 10 micrograms per ml, 7-10 days
HUVEC = test: Endothelial tube formation assay; type: cell-based, human; conditions: 10 micrograms per ml, 20 hours
Text: Positive control was vehicle only. […] Raw data were expressed as average tubule lenghs in pixels±standard deviation.

RAW 264.7 cells = test: Phagocytosis assay (Fluorescein-labeled Escherichia coli, flow cytometry); conditions: 10 micrograms per ml, 30 min preincubation, 60 min ingestion
Description: RAW 264.7 (Mouse leukaemic monocyte macrophage cell line) cells were obtained from ATCC and grown in RPMI 1640 medium containing 10% FBS. Cells were incubated in 12×75 mm tubes at 37° C. with test peptides —10 micrograms per ml—for 30 min prior to adding Fluorescein-labeled Escherichia coli bacteria as the agent to be ingested. After the cells were incubated for additional 60 min at 37° C. and allowed to ingest the Fluorescein-labeled Escherichia coli bacteria, cells were fixed with 1% paraformaldehyde. The samples were then analyzed by flow cytometry to determine the amount of phagocytosis as a function of brightness (the greater the phagocytic activity, the more fluorescence in the macrophage population). Data are reported as % positive and the mean fluorescence intensity (MFI) of positively stained cells.

murine spleen cells = test: Th1/Th2 cytokine profiling assay (Ovalbumin-restimulated spleen cells, CBA kit); type: cell-based, Balb/c mice; conditions: 10 micrograms per ml, Ovalbumin restimulation, 72 hours
Description: The Balb/c mice (originated in 1923, it is a popular strain and is used in many different research disciplines. Also classified as an inbred from the production of 20 or more successive brother-sister matings, the Balb/c mouse is albino and small in size) were immunized on Days 1, 15, and 29 with Ovalbumin (Ovalbumin is the main protein found in egg white, commonly used to stimulate an immunological reaction in test animals) in PBS (5 micrograms/injection). On day 50, spleens of the mice were harvested (3 weeks after last boost with Ovalbumin). Cells were cultured (2×10^5/well in triplicate) and incubated with culture medium or test peptides —10 micrograms per ml—for 30 min. Thereafter, additional Ovalbumin was added to the cells at 10 micrograms/ml for in vitro restimulation of the cells. 72 hours later, cell supernatants were harvested and assayed using the Becton Dickinson Mouse Th1/Th2 Cytokine CBA Kit. This kit can be used to measure Interleukin-2 (IL-2), Interleukin-4 (IL-4), Interleukin-5 (IL-5), Interferon-γ (IFN-γ), and Tumor Necrosis Factor-α(TNF-α) protein levels in a single sample.

[2] = tested on: Primary Human endothelial cells (HUVEC); test: Endothelial cell migration assay; type: cell-based; conditions: 10 micrograms per ml, 22 hours
Description: Thereafter, designated concentration of testing peptides —10 micrograms per ml—was added in duplicate wells.

A549 cells = test: Apoptosis prevention assay (C2 ceramide, Annexin-5); type: cell-based; conditions: human lung cells (A549), 10 micrograms per ml, 30 min pretreatment
Description: Human A549 cells (carcinomic human alveolar basal epithelial cells) were utilized in the experiments employing the Annexin-5 apoptosis assay. […] A549 cells were pretreated for 30 min with test peptides —10 micrograms per ml—followed by the exposure to C2 ceramide. […] C2 ceramide is a synthetic, membrane soluble analog of ceramide.

Row | Molecule | inhibition of HIV-1 activity (antiviral activity) (HIV-1IIIB) | inhibition of HBV replication as compared to the virus control infection [1] | inhibition of HCMV plaque formation as compared to the virus control experiment (HCMV strain AD169) | inhibition of the tube formation of human endothelial cells (HUVEC) | induction of phagocytosis as compared to the control experiment (RAW 264.7 cells) | change of the production of IFN-gamma (murine spleen cells) | change of the production of IL-4 (murine spleen cells) | change of the production of IL-5 (murine spleen cells) | change of the production of TNF-alpha (murine spleen cells) | induction of the production of IL-2 (murine spleen cells) | inhibition of the migration of human endothelial cells [2] | reduction of ceramide-induced apoptosis (A549 cells)
1 | Cc1cn([C@H]2C[C@H](N=[N+]=[N-])[C@@H](CO)O2)c(=O)[nH]c1=O [AZT] | expected levels of antiviral activity | – | – | – | – | – | – | – | – | – | – | –
2 | CC(C)(C)NC(=O)[C@@H]1CN(Cc2cccnc2)CCN1C[C@@H](O)C[C@@H](Cc1ccccc1)C(=O)N[C@H]1c2ccccc2C[C@H]1O [indinavir] | expected levels of antiviral activity | – | – | – | – | – | – | – | – | – | – | –
3 | Ala-Ile-Phe-Ile-Phe-Ile-Arg-Trp-Leu-Leu-Lys-Leu-Gly-His-His-Gly-Arg-Ala-Pro-Pro-OH (AIFIFIRWLLKLGHHGRAPP-OH) [Peptide 1] | – | 44.6% | did not inhibit | 23% | did not induced phagocytosis | did not significantly change | did not significantly change | did not significantly change | did not significantly change | 156% | 19% | 28.2%
4 | [βAla]-His-OH [Peptide 2] | – | 29.6% | 4.4% | 21% | 48.6% | did not significantly change | did not significantly change | did not significantly change | did not significantly change | 26.5% | 8% | did not reduce
